In article PMC4792576, “Formononetin, a novel FGFR2 inhibitor, potently inhibits angiogenesis and tumor growth in preclinical models” (Oncotarget, 2015):

What was measured:
FGFR1 = FGFR1 (Homo sapiens, UniProt P11362); experiment: radiometric kinase panel (Millipore), single concentration […]; format: biochemical; details: read-out: Inhibition rate at 1 μM (%)
FGFR2 = target: T1, FGFR2 (Homo sapiens, UniProt P21802); experiment: in vitro FGFR2 kinase assay (CycLex kit / Z'-lyte FRET), dose response; radiometric panel […] at […]; format: biochemical
T1 construct: kinase domains of FGFR2
T1 sequence (P21802 458-768 limits assumed): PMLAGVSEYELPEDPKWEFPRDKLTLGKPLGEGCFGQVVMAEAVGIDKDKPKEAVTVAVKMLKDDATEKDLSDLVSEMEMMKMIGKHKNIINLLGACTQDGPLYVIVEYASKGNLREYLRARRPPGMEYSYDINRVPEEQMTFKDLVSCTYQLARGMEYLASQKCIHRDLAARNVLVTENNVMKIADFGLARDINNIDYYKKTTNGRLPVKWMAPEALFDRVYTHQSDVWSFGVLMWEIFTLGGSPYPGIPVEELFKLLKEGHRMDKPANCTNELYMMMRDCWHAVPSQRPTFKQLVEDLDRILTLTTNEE

Chain of FGFR1 (P11362 22-822): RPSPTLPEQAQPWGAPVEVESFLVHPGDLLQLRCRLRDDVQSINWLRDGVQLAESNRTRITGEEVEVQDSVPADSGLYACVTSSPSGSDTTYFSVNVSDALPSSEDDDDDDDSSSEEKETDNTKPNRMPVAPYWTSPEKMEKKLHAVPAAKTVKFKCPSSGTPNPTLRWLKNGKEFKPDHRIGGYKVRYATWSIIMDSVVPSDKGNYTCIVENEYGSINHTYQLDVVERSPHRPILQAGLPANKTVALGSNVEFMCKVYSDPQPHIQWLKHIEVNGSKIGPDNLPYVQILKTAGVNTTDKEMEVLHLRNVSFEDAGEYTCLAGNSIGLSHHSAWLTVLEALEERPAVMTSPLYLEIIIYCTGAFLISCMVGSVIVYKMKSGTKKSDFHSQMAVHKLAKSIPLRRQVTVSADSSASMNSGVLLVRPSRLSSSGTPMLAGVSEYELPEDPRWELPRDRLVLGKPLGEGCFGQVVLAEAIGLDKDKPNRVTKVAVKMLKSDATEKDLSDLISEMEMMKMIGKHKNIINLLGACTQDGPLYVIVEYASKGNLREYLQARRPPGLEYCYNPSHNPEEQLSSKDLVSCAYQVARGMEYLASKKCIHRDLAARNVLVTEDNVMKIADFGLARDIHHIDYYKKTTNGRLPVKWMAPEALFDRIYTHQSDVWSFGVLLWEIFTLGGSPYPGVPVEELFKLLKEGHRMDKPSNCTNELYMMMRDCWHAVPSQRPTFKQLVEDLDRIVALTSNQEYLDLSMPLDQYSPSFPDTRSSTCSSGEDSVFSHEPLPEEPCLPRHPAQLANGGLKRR

- inhibition at 1 µM (FGFR1): 57 ± 4%
- IC50 (FGFR2): ~4.31 µM
SMILES: COc1ccc(-c2coc3cc(O)ccc3c2=O)cc1 [formononetin]
